We go through 17 compounds from US20220396565A1 (Hoffmann-La Roche Inc., priority 2020, published 2022).

Structures can show the parent of a compound that is named as a salt.

In this experiment the test system is Acinetobacter baumannii ATCC17961. The experiment is described as follows: Antimicrobial susceptibility testing: 90% growth inhibitory concentration (IC90) determination, Iso-Sensitest broth. The class given is cell-based. The settings on record: Acinetobacter baumannii, ATCC17961, 90% growth inhibitory concentration, Acinetobacter baumannii ATCC17961, Iso-Sensitest broth; read-out: ATCC 17961 IC90. The essentials: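 Growth at OD600 was monitored every 20 min for 16 h at 35±2 °C, with bacteria inoculated at ~5×10^(5) CFU/ml into Iso-Sensitest medium. Compounds were tested as 10-point twofold dilutions (e.g. 10–0.02 μM final). The 90% inhibitory concentration comes from the log-phase growth.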
As to `Cn1c(-c2ccc(OC(F)F)c(F)c2Cl)cnc1C(=O)Nc1ccc(C(=O)N2CCN(C(=O)C[C@@H]3CCNC3)CC2)c(Cl)c1` [Example 147, 5-[2-chloro-4-(difluoromethoxy)-3-fluoro-phenyl]-N-[3-chloro-4-[4-[2-[(3S)-pyrrolidin-3-yl]acetyl]piperazine-1-carbonyl]phenyl]-1-methyl-imidazole-2-carboxamide formate], the IC90 is 40 nM.

For the compound `Cn1c(-c2ccc(OCF)c(F)c2F)cnc1C(=O)Nc1ccc(C(=O)N2CCN(C(=O)C3CNCC3O)CC2)c(Cl)c1` (centres unmarked) [Example 148, N-[3-chloro-4-[4-(4-hydroxypyrrolidine-3-carbonyl)piperazine-1-carbonyl]phenyl]-5-[2,3-difluoro-4-(fluoromethoxy)phenyl]-1-methyl-imidazole-2-carboxamide formate], the IC90 was determined as 40 nM.

As to `COc1ccc(-c2cnc(C(=O)Nc3ccc(C(=O)N4CCN(C(=O)CN)CC4)c(Cl)c3)n2C)c(F)c1F` [Example 149, N-[4-[4-(2-aminoacetyl)piperazine-1-carbonyl]-3-chloro-phenyl]-5-(2,3-difluoro-4 methoxy-phenyl)-1-methyl-imidazole-2-carboxamide formate], the IC90 is 30 nM.

For `COc1ccc(-c2cnc(C(=O)Nc3ccc(C(=O)N4CCN(C(=O)[C@@H]5CCN5)CC4)c(Cl)c3)n2C)c(F)c1F` [Example 150, N-[4-[4-[(2S)-azetidine-2-carbonyl]piperazine-1-carbonyl]-3-chloro-phenyl]-5-(2,3-difluoro-4-methoxy-phenyl)-1-methyl-imidazole-2-carboxamide formate], the IC90 came out at 80 nM.

With `COc1ccc(-c2cnc(C(=O)Nc3ccc(C(=O)N4CCN(C(=O)CC5CCNC5)CC4)c(Cl)c3)n2C)c(F)c1F` (centres unmarked) [Example 151, N-[3-chloro-4-[4-(2-pyrrolidin-3-ylacetyl)piperazine-1-carbonyl]phenyl]-5-(2,3-difluoro-4-methoxy-phenyl)-1-methyl-imidazole-2-carboxamide formate], the IC90 came to 40 nM.

In the case of `COc1ccc(-c2cnc(C(=O)Nc3ccc(C(=O)N4CCN(C(=O)C[C@H]5CCCN5)CC4)c(Cl)c3)n2C)c(F)c1F` [Example 152, N-[3-chloro-4-[4-[2-[(2R)-pyrrolidin-2-yl]acetyl]piperazine-1-carbonyl]phenyl]-5-(2,3-difluoro-4-methoxy-phenyl)-1-methyl-imidazole-2-carboxamide formate], the IC90 worked out at 50 nM.

On to `COc1ccc(-c2cnc(C(=O)Nc3ccc(C(=O)N4CCN(C(=O)C[C@H]5CCNC5)CC4)c(Cl)c3)n2C)c(F)c1F` [Example 153, N-[3-chloro-4-[4-[2-[(3R)-pyrrolidin-3-yl]acetyl]piperazine-1-carbonyl]phenyl]-5-(2,3-difluoro-4-methoxy-phenyl)-1-methyl-imidazole-2-carboxamide formate], for which the IC90 came to 60 nM.

`COc1ccc(-c2cnc(C(=O)Nc3ccc(C(=O)N4CCN(C(=O)C[C@@H]5CCCN5)CC4)c(Cl)c3)n2C)c(F)c1F` [Example 154, N-[3-chloro-4-[4-[2-[(2S)-pyrrolidin-2-yl]acetyl]piperazine-1-carbonyl]phenyl]-5-(2,3-difluoro-4-methoxy-phenyl)-1-methyl-imidazole-2-carboxamide formate]: the IC90 came to 70 nM.

For `Cn1c(-c2ccc(OCF)c(F)c2F)cnc1C(=O)Nc1ccc(C(=O)N2CCN(C(=O)[C@@H]3CCNC3)CC2)c(Cl)c1` [Example 155, N-[3-chloro-4-[4-[(3R)-pyrrolidine-3-carbonyl]piperazine-1-carbonyl]phenyl]-5-[2,3-difluoro-4-(fluoromethoxy)phenyl]-1-methyl-imidazole-2-carboxamide formate], the IC90 came to 40 nM.

Consider `CN(C)CC(=O)N1CCN(C(=O)c2ccc(NC(=O)c3ncc(-c4ccc(OC(F)F)c(F)c4F)n3C)cc2Cl)CC1` [Example 156, N-[3-chloro-4-[4-[2-(dimethylamino)acetyl]piperazine-1-carbonyl]phenyl]-5-[4-(difluoromethoxy)-2,3-difluoro-phenyl]-1-methyl-imidazole-2-carboxamide formate], for which the IC90 is 30 nM.

In the case of `Cn1c(-c2ccc(OCF)c(F)c2F)cnc1C(=O)Nc1ccc(C(=O)N2CCN(C(=O)C[C@@H]3CCCN3)CC2)c(Cl)c1` [Example 157, N-[3-chloro-4-[4-[2-[(2S)-pyrrolidin-2-yl]acetyl]piperazine-1-carbonyl]phenyl]-5-[2,3-difluoro-4-(fluoromethoxy)phenyl]-1-methyl-imidazole-2-carboxamide formate], the IC90 came out at 30 nM.

For the compound `Cn1c(-c2ccc(OCF)c(F)c2F)cnc1C(=O)Nc1ccc(C(=O)N2CCN(C(=O)C[C@@H]3CCNC3)CC2)c(Cl)c1` [Example 158, N-[3-chloro-4-[4-[2-[(3S)-pyrrolidin-3-yl]acetyl]piperazine-1-carbonyl]phenyl]-5-[2,3-difluoro-4-(fluoromethoxy)phenyl]-1-methyl-imidazole-2-carboxamide formate], the IC90 came to 40 nM.

As to `Cn1c(-c2ccc(OC(F)F)cc2F)cnc1C(=O)Nc1ccc(C(=O)N2CCN(C(=O)C[C@@H]3CCCN3)CC2)c(Cl)c1` [Example 159, N-[3-chloro-4-[4-[2-[(2S)-pyrrolidin-2-yl]acetyl]piperazine-1-carbonyl]phenyl]-5-[4-(difluoromethoxy)-2-fluoro-phenyl]-1-methyl-imidazole-2-carboxamide formate], the IC90 amounted to 70 nM.

On to `Cn1c(-c2ccc(OCF)c(F)c2F)cnc1C(=O)Nc1ccc(C(=O)N2CCN(C(=O)CC3(O)CNC3)CC2)c(Cl)c1` [Example 160, N-[3-chloro-4-[4-[2-(3-hydroxyazetidin-3-yl)acetyl]piperazine-1-carbonyl]phenyl]-5-[2,3-difluoro-4-(fluoromethoxy)phenyl]-1-methyl-imidazole-2-carboxamide formate], for which the IC90 was found to be 40 nM.

For `COc1ccc(-c2cnc(C(=O)Nc3ccc(C(=O)N4CCN(C(=O)CC5(O)CCNCC5)CC4)c(Cl)c3)n2C)c(F)c1F` [Example 161, N-[3-chloro-4-[4-[2-(4-hydroxy-4-piperidyl)acetyl]piperazine-1-carbonyl]phenyl]-5-(2,3-difluoro-4-methoxy-phenyl)-1-methyl-imidazole-2-carboxamide formate], the IC90 was determined as 30 nM.

With `Cn1c(-c2ccc(OCF)c(F)c2F)cnc1C(=O)Nc1ccc(C(=O)N2CCN(C(=O)C3(O)CCNCC3)CC2)c(Cl)c1` [Example 162, N-[3-chloro-4-[4-(4-hydroxypiperidine-4-carbonyl)piperazine-1-carbonyl]phenyl]-5-[2,3-difluoro-4-(fluoromethoxy)phenyl]-1-methyl-imidazole-2-carboxamide formate], the IC90 is 30 nM.

Consider `Cn1c(-c2ccc(OC(F)F)c(F)c2F)cnc1C(=O)Nc1ccc(C(=O)N2CCN(C(=O)[C@@H]3C[C@@H](O)CN3)CC2)c(Cl)c1` [Example 163, N-[3-chloro-4-[4-[(2S,4R)-4-hydroxypyrrolidine-2-carbonyl]piperazine-1-carbonyl]phenyl]-5-[4-(difluoromethoxy)-2,3-difluoro-phenyl]-1-methyl-imidazole-2-carboxamide formate], for which the IC90 is 40 nM.

For orientation: IC90 means the concentration at which the effect reaches the 90% level.
